ChEMBL document CHEMBL5303304, “EUbOPEN Chemogenomics Library - IncuCyte” (2023)

What was measured:
Type in all cases: toxicity, cell-based
HEK-293T = test: Incucyte cell viability with HEK293T; settings: human, 10 µM, compound concentration 10 uM
Fibroblast = test: Incucyte cell viability with human fibroblast; settings: 10 µM, compound concentration 10 uM
U2OS = test: Incucyte cell viability with U2OS; settings: human, 10 µM, compound concentration 10 uM
Also: unitless GR value; below 1 slowed growth and below 0 cell loss.

O=C(O)CCCCN(CCc1ccccc1OCc1ccc(CCc2ccccc2)cc1)Cc1ccc(C(=O)O)cc1
Growth Rate (HEK-293T; 0 h, replicate number 1): 0.96 | Growth Rate (HEK-293T; 0 h, replicate number 2): 0.47 | Growth Rate (HEK-293T; 6 h, replicate number 1): 0.91 | Growth Rate (HEK-293T; 18 h, replicate number 1): 0.87 | Growth Rate (HEK-293T; 24 h, replicate number 1): 0.99 | Growth Rate (Fibroblast; 0 h, replicate number 2): -0.44 | Growth Rate (Fibroblast; 6 h, replicate number 1): 0.92 | Growth Rate (Fibroblast; 24 h, replicate number 1): 0.98 | Growth Rate (U2OS; 0 h, replicate number 1): 0.14 | Growth Rate (U2OS; 6 h, replicate number 1): 0.32 | Growth Rate (U2OS; 12 h, replicate number 1): 0.91 | Growth Rate (U2OS; 18 h, replicate number 1): 0.83 | Growth Rate (U2OS; 24 h, replicate number 1): 0.86

O=C(O)c1ccc(OCCCc2ccc(OCCCCOC3CCCCC3)cc2)c(C(=O)NC2CCCC(C(=O)O)C2)c1 (stereo unspecified)
Growth Rate (HEK-293T; 0 h, replicate number 1): -0.01 | Growth Rate (HEK-293T; 6 h, replicate number 1): 0.96 | Growth Rate (HEK-293T; 12 h, replicate number 1): 0.94 | Growth Rate (HEK-293T; 18 h, replicate number 2): 0.94 | Growth Rate (HEK-293T; 24 h, replicate number 2): 0.92 | Growth Rate (Fibroblast; 6 h, replicate number 2): -0.02 | Growth Rate (Fibroblast; 12 h, replicate number 2): 0.19 | Growth Rate (Fibroblast; 18 h, replicate number 2): 0.41 | Growth Rate (Fibroblast; 24 h, replicate number 2): 0.73 | Growth Rate (U2OS; 24 h, replicate number 1): 0.89

COCc1c(-c2cc3cc(C)cc(OC)c3s2)c2c(N)ncnn2c1CN[C@@H]1CCNC1=O
Growth Rate (HEK-293T; 0 h, replicate number 1): -0.25 | Growth Rate (HEK-293T; 0 h, replicate number 2): -0.02 | Growth Rate (HEK-293T; 6 h, replicate number 1): 0.47 | Growth Rate (HEK-293T; 6 h, replicate number 2): 0.58 | Growth Rate (HEK-293T; 12 h, replicate number 1): 0.43 | Growth Rate (HEK-293T; 12 h, replicate number 2): 0.2 | Growth Rate (HEK-293T; 18 h, replicate number 1): 0.61 | Growth Rate (HEK-293T; 18 h, replicate number 2): 0.49 | Growth Rate (HEK-293T; 24 h, replicate number 1): 0.62 | Growth Rate (HEK-293T; 24 h, replicate number 2): 0.65 | Growth Rate (Fibroblast; 0 h, replicate number 1): -1 | Growth Rate (Fibroblast; 6 h, replicate number 1): 0.36 | Growth Rate (Fibroblast; 12 h, replicate number 1): 0.6 | Growth Rate (Fibroblast; 18 h, replicate number 1): 0.59 | Growth Rate (Fibroblast; 18 h, replicate number 2): 0.77 | Growth Rate (Fibroblast; 24 h, replicate number 1): 0.46 | Growth Rate (Fibroblast; 24 h, replicate number 2): 0.98 | Growth Rate (U2OS; 0 h, replicate number 2): 0.73 | Growth Rate (U2OS; 6 h, replicate number 1): 0.62 | Growth Rate (U2OS; 12 h, replicate number 1): 0.45 | Growth Rate (U2OS; 12 h, replicate number 2): 0.77 | Growth Rate (U2OS; 18 h, replicate number 1): 0.84 | Growth Rate (U2OS; 18 h, replicate number 2): 0.85 | Growth Rate (U2OS; 24 h, replicate number 1): 0.44 | Growth Rate (U2OS; 24 h, replicate number 2): 0.9

CC(=O)c1c(C)c2cnc(Nc3ccc(N4CCN(CCOCCOCCOCCNC(=O)COc5cccc6c5C(=O)N(C5CCC(=O)NC5=O)C6=O)CC4)cn3)nc2n(C2CCCC2)c1=O (stereo unspecified)
Growth Rate (HEK-293T; 0 h, replicate number 1): 0.95 | Growth Rate (Fibroblast; 0 h, replicate number 2): 0.18 | Growth Rate (Fibroblast; 12 h, replicate number 2): 0.92 | Growth Rate (Fibroblast; 24 h, replicate number 2): 0.89 | Growth Rate (U2OS; 12 h, replicate number 1): 0.99 | Growth Rate (U2OS; 12 h, replicate number 2): 0.93

COc1ccc(-c2c(-c3ccccc3)oc3ncnc(O[C@H](C)CCCCC(=O)O)c23)cc1
Growth Rate (HEK-293T; 0 h, replicate number 1): 0.1 | Growth Rate (HEK-293T; 0 h, replicate number 2): 0.14 | Growth Rate (Fibroblast; 0 h, replicate number 1): -1 | Growth Rate (Fibroblast; 6 h, replicate number 1): 0.79 | Growth Rate (Fibroblast; 6 h, replicate number 2): -0.43 | Growth Rate (Fibroblast; 12 h, replicate number 2): 0.48 | Growth Rate (Fibroblast; 18 h, replicate number 2): 0.98 | Growth Rate (Fibroblast; 24 h, replicate number 1): 0.88 | Growth Rate (U2OS; 12 h, replicate number 1): 0.94

NC(=O)OC[C@H](NC(=O)Cn1nc(-c2ccc(Cl)cc2)n(C[C@H](O)C(F)(F)F)c1=O)c1cccc(C(F)(F)F)c1
Growth Rate (HEK-293T; 0 h, replicate number 1): 0.72 | Growth Rate (HEK-293T; 0 h, replicate number 2): -0.43 | Growth Rate (HEK-293T; 12 h, replicate number 1): 0.8 | Growth Rate (HEK-293T; 18 h, replicate number 1): 0.84 | Growth Rate (HEK-293T; 18 h, replicate number 2): 0.83 | Growth Rate (HEK-293T; 24 h, replicate number 1): 0.71 | Growth Rate (HEK-293T; 24 h, replicate number 2): 0.79 | Growth Rate (Fibroblast; 0 h, replicate number 2): 0.27 | Growth Rate (Fibroblast; 6 h, replicate number 1): 0.56 | Growth Rate (Fibroblast; 6 h, replicate number 2): -0.17 | Growth Rate (Fibroblast; 12 h, replicate number 1): 0.83 | Growth Rate (Fibroblast; 12 h, replicate number 2): 0.75 | Growth Rate (Fibroblast; 18 h, replicate number 1): 0.71 | Growth Rate (Fibroblast; 18 h, replicate number 2): 0.65 | Growth Rate (Fibroblast; 24 h, replicate number 1): 0.84 | Growth Rate (Fibroblast; 24 h, replicate number 2): 0.7 | Growth Rate (U2OS; 0 h, replicate number 1): 0.95 | Growth Rate (U2OS; 6 h, replicate number 1): 0.83 | Growth Rate (U2OS; 12 h, replicate number 1): 0.85 | Growth Rate (U2OS; 24 h, replicate number 1): 0.9

CCS(=O)(=O)Nc1cccc(Oc2cncc(Nc3ccc(I)cc3F)c2C(N)=O)c1
Growth Rate (HEK-293T; 0 h, replicate number 1): 0.82 | Growth Rate (HEK-293T; 6 h, replicate number 1): 0.77 | Growth Rate (HEK-293T; 12 h, replicate number 1): 0.82 | Growth Rate (HEK-293T; 12 h, replicate number 2): 0.71 | Growth Rate (HEK-293T; 18 h, replicate number 1): 0.77 | Growth Rate (HEK-293T; 18 h, replicate number 2): 0.58 | Growth Rate (HEK-293T; 24 h, replicate number 1): 0.74 | Growth Rate (HEK-293T; 24 h, replicate number 2): 0.69 | Growth Rate (Fibroblast; 6 h, replicate number 1): 0.99 | Growth Rate (U2OS; 6 h, replicate number 1): 0.71 | Growth Rate (U2OS; 6 h, replicate number 2): 0.62 | Growth Rate (U2OS; 12 h, replicate number 2): 0.76 | Growth Rate (U2OS; 18 h, replicate number 1): 0.92 | Growth Rate (U2OS; 24 h, replicate number 1): 0.84 | Growth Rate (U2OS; 24 h, replicate number 2): 0.98

Oc1c(-c2cccnc2)cnn1-c1ccccn1
Growth Rate (HEK-293T; 0 h, replicate number 1): 0.54 | Growth Rate (HEK-293T; 0 h, replicate number 2): -0.2 | Growth Rate (HEK-293T; 6 h, replicate number 1): 0.91 | Growth Rate (Fibroblast; 0 h, replicate number 2): 0.86 | Growth Rate (Fibroblast; 18 h, replicate number 2): 0.44 | Growth Rate (Fibroblast; 24 h, replicate number 1): 0.87 | Growth Rate (Fibroblast; 24 h, replicate number 2): 0.59 | Growth Rate (U2OS; 6 h, replicate number 1): 0.87 | Growth Rate (U2OS; 24 h, replicate number 1): 0.84

CC[C@@H](CO)Nc1nc(Nc2cccc(NC(=O)C(C)(C)C)c2)ncc1F
Growth Rate (HEK-293T; 0 h, replicate number 1): 0.29 | Growth Rate (HEK-293T; 12 h, replicate number 1): 0.87 | Growth Rate (HEK-293T; 24 h, replicate number 1): 0.96 | Growth Rate (Fibroblast; 0 h, replicate number 2): 0.61 | Growth Rate (U2OS; 0 h, replicate number 2): 0.94 | Growth Rate (U2OS; 6 h, replicate number 1): 0.56 | Growth Rate (U2OS; 6 h, replicate number 2): 0.8 | Growth Rate (U2OS; 12 h, replicate number 1): 0.66 | Growth Rate (U2OS; 12 h, replicate number 2): 0.83 | Growth Rate (U2OS; 18 h, replicate number 1): 0.87 | Growth Rate (U2OS; 18 h, replicate number 2): 0.86 | Growth Rate (U2OS; 24 h, replicate number 1): 0.91 | Growth Rate (U2OS; 24 h, replicate number 2): 0.89

Cc1c(N2CCCC2)nc2ccc(Br)cc2c1C(=O)NC[C@H](CCC(=O)O)c1ccccc1Cl.Cl.O
Growth Rate (HEK-293T; 0 h, replicate number 1): 0.22 | Growth Rate (HEK-293T; 0 h, replicate number 2): -0.18 | Growth Rate (Fibroblast; 0 h, replicate number 1): -1 | Growth Rate (Fibroblast; 0 h, replicate number 2): -0.4 | Growth Rate (Fibroblast; 6 h, replicate number 1): 0.4 | Growth Rate (Fibroblast; 12 h, replicate number 2): 0.93 | Growth Rate (U2OS; 0 h, replicate number 2): -0.04 | Growth Rate (U2OS; 6 h, replicate number 1): 0.65 | Growth Rate (U2OS; 12 h, replicate number 1): 0.97 | Growth Rate (U2OS; 18 h, replicate number 1): 0.93 | Growth Rate (U2OS; 18 h, replicate number 2): 0.99 | Growth Rate (U2OS; 24 h, replicate number 1): 0.91 | Growth Rate (U2OS; 24 h, replicate number 2): 0.92

CC(C)(C)c1cc(NC(=O)c2csc(Nc3ccc(Cl)cc3)n2)no1
Growth Rate (HEK-293T; 0 h, replicate number 1): 0.27 | Growth Rate (HEK-293T; 0 h, replicate number 2): -0.44 | Growth Rate (HEK-293T; 6 h, replicate number 2): 0.84 | Growth Rate (HEK-293T; 12 h, replicate number 2): 0.99 | Growth Rate (HEK-293T; 18 h, replicate number 1): 0.94 | Growth Rate (HEK-293T; 24 h, replicate number 1): 0.97 | Growth Rate (Fibroblast; 0 h, replicate number 1): -1 | Growth Rate (Fibroblast; 6 h, replicate number 1): 0.89 | Growth Rate (Fibroblast; 12 h, replicate number 2): 0.46 | Growth Rate (Fibroblast; 18 h, replicate number 2): 0.74 | Growth Rate (Fibroblast; 24 h, replicate number 1): 0.8 | Growth Rate (Fibroblast; 24 h, replicate number 2): 0.87 | Growth Rate (U2OS; 24 h, replicate number 1): -0.59

CC(C)(C)OC(=O)CN1C(=O)c2c(OCC(=O)O)cccc2Oc2ccc(C(F)(F)F)cc21
Growth Rate (HEK-293T; 0 h, replicate number 1): 0.31 | Growth Rate (HEK-293T; 0 h, replicate number 2): -0.65 | Growth Rate (HEK-293T; 6 h, replicate number 1): 0.69 | Growth Rate (HEK-293T; 12 h, replicate number 1): 0.61 | Growth Rate (HEK-293T; 18 h, replicate number 1): 0.76 | Growth Rate (HEK-293T; 24 h, replicate number 1): 0.75 | Growth Rate (Fibroblast; 6 h, replicate number 1): 0.95 | Growth Rate (Fibroblast; 6 h, replicate number 2): -0.59 | Growth Rate (Fibroblast; 12 h, replicate number 2): 0.43 | Growth Rate (Fibroblast; 18 h, replicate number 2): 0.87 | Growth Rate (U2OS; 0 h, replicate number 1): 0.59 | Growth Rate (U2OS; 6 h, replicate number 1): 0.75 | Growth Rate (U2OS; 12 h, replicate number 1): 0.85 | Growth Rate (U2OS; 18 h, replicate number 1): 0.83 | Growth Rate (U2OS; 24 h, replicate number 1): 0.89

C[C@@H]1CC(=O)N(C2CC2)N=C1c1ccc(NC(=O)N2Cc3ccncc3C2)cc1
Growth Rate (HEK-293T; 0 h, replicate number 1): 0.95 | Growth Rate (HEK-293T; 0 h, replicate number 2): -0.07 | Growth Rate (HEK-293T; 6 h, replicate number 1): 0.41 | Growth Rate (HEK-293T; 6 h, replicate number 2): 0.39 | Growth Rate (HEK-293T; 12 h, replicate number 1): 0.41 | Growth Rate (HEK-293T; 12 h, replicate number 2): 0.67 | Growth Rate (HEK-293T; 18 h, replicate number 1): 0.46 | Growth Rate (HEK-293T; 18 h, replicate number 2): 0.53 | Growth Rate (HEK-293T; 24 h, replicate number 1): 0.28 | Growth Rate (HEK-293T; 24 h, replicate number 2): 0.32 | Growth Rate (Fibroblast; 0 h, replicate number 1): -0.95 | Growth Rate (Fibroblast; 0 h, replicate number 2): -0.77 | Growth Rate (Fibroblast; 6 h, replicate number 1): 0.8 | Growth Rate (Fibroblast; 6 h, replicate number 2): -0.07 | Growth Rate (Fibroblast; 12 h, replicate number 2): 0.57 | Growth Rate (Fibroblast; 18 h, replicate number 2): 0.85 | Growth Rate (Fibroblast; 24 h, replicate number 2): 0.81 | Growth Rate (U2OS; 6 h, replicate number 1): 0.59 | Growth Rate (U2OS; 12 h, replicate number 1): 0.94 | Growth Rate (U2OS; 24 h, replicate number 1): 0.95
